In this experiment the test system is CD2F1 mice, L1210 leukemia ip, survival T/C. Nature of the experiment: NCI In Vivo Anticancer Drug Screen. Data for tumor model L1210 Leukemia (intraperitoneal) in CD2F1 (CDF1) mice. As to conditions: endpoint: mean survival time, higher = longer survival. The essentials:
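Implant tumor; dose compound or vehicle; measure endpoint in both groups; report treated divided by control.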

[1] abbreviates: dose: 50.0 mg/kg/injection, schedule: Q01DX009 (ip), vehicle: saline with Tween-80.
[2] abbreviates: dose: 100.0 mg/kg/injection, schedule: Q01DX009 (ip), vehicle: saline with Tween-80.
[3] abbreviates: dose: 200.0 mg/kg/injection, schedule: Q01DX009 (ip), vehicle: saline with Tween-80.
[4] abbreviates: dose: 100.0 mg/kg/injection, schedule: Q04DX002 (ip), vehicle: saline with Tween-80.
Where [5] appears, read: dose: 400.0 mg/kg/injection, schedule: Q04DX002 (ip), vehicle: saline with Tween-80.
[6] abbreviates: dose: 100.0 mg/kg/injection, schedule: Q04DX003 (ip), vehicle: saline with Tween-80.
The mark [7] stands for this setting: dose: 200.0 mg/kg/injection, schedule: Q04DX003 (ip), vehicle: saline with Tween-80.
The mark [8] stands for this setting: dose: 400.0 mg/kg/injection, schedule: Q04DX003 (ip), vehicle: saline with Tween-80.
Where [9] appears, read: dose: 6.25 mg/kg/injection, schedule: Q01DX009 (ip), vehicle: saline with Tween-80.
The mark [10] stands for this setting: dose: 12.5 mg/kg/injection, schedule: Q01DX009 (ip), vehicle: saline with Tween-80.
[11] abbreviates: dose: 25.0 mg/kg/injection, schedule: Q01DX009 (ip), vehicle: saline with Tween-80.
The mark [12] stands for this setting: dose: 50.0 mg/kg/injection, schedule: Q04DX002 (ip), vehicle: saline with Tween-80.
The mark [13] stands for this setting: dose: 100.0 mg/kg/injection, schedule: Q01DX001 (ip), vehicle: saline with Tween-80.
Setting [14] is: dose: 200.0 mg/kg/injection, schedule: Q01DX001 (ip), vehicle: saline with Tween-80.
The mark [15] stands for this setting: dose: 100.0 mg/kg/injection, schedule: Q04DX003 (ip), vehicle: Klucel (hydroxypropylcellulose) (HPC).
Where [16] appears, read: dose: 400.0 mg/kg/injection, schedule: Q01DX009 (ip), vehicle: saline with Tween-80.

Structures are written as SMILES. Inconclusive results and toxic doses are left out.

In the case of `COc1cc(Cl)ccc1NC(=O)OCCOc1ccc(C(C)(C)C)cc1`, the T/C was 103 % of control under setting [1], 95 % of control under setting [2] and 95 % of control under setting [3].

Consider `CN(C)/C=C\C(=O)O`, for which the T/C reads like this: under setting [4], 102 % of control; (dose: 200.0 mg/kg/injection, schedule: Q04DX002 (ip), vehicle: saline with Tween-80) 102 % of control; under setting [5], 98 % of control.

As to `CS(=O)(=O)OC(C(Br)CBr)C(OS(C)(=O)=O)C(Br)CBr` (stereo not drawn), the T/C reads like this: (dose: 100.0 mg/kg/injection, schedule: Q01DX001 (ip), vehicle: Klucel (hydroxypropylcellulose) (HPC)) 87 % of control; (dose: 200.0 mg/kg/injection, schedule: Q01DX001 (ip), vehicle: Klucel (hydroxypropylcellulose) (HPC)) 90 % of control; (dose: 400.0 mg/kg/injection, schedule: Q01DX001 (ip), vehicle: Klucel (hydroxypropylcellulose) (HPC)) 88 % of control.

Consider `CCOC(=O)N[C@H]1CCc2cc(OC)c(OC)c(OC)c2-c2ccc(SC)c(=O)cc21`, for which the T/C runs as follows: (dose: 0.38 mg/kg/injection, schedule: Q01DX009 (ip), vehicle: other) 103 % of control; (dose: 0.75 mg/kg/injection, schedule: Q01DX009 (ip), vehicle: other) 108 % of control; (dose: 1.5 mg/kg/injection, schedule: Q01DX009 (ip), vehicle: other) 114 % of control.

Take `Nc1ccccc1-c1ccc([N+](=O)[O-])cc1`: the T/C is 94 % of control under setting [6], 92 % of control under setting [7] and 101 % of control under setting [8].

`COc1ccc(C[C@@H]2NC[C@@H](O)[C@@H]2OC(C)=O)cc1`: the T/C was 98 % of control under setting [2]; 105 % of control under setting [6]; 104 % of control under setting [3]; 103 % of control under setting [7]; 100 % of control under setting [8].

With `COCNC(=S)N/N=C/c1ccccn1`, the T/C was 97 % of control under setting [9]; 100 % of control under setting [10]; 94 % of control (dose: 12.5 mg/kg/injection, schedule: Q04DX002 (ip), vehicle: saline with Tween-80); 97 % of control under setting [11]; 97 % of control (dose: 25.0 mg/kg/injection, schedule: Q04DX002 (ip), vehicle: saline with Tween-80); 122 % of control under setting [1]. Also, the T/C under setting [12] is 97 % of control.

As to `Cc1c(F)cccc1[N+](=O)[O-]`, the T/C reads like this: under setting [1], 101 % of control; under setting [2], 104 % of control; under setting [3], 98 % of control.

On to `CC1(C)N=C(N)N=C(N)N1c1ccc(/C=C/C(=O)Nc2cccc(S(=O)(=O)F)c2)cc1`, for which the T/C by setting is: under setting [13], 89 % of control; under setting [14], 95 % of control; (dose: 400.0 mg/kg/injection, schedule: Q01DX001 (ip), vehicle: saline with Tween-80) 92 % of control.

As for `COC(=O)C(CS)NC(=O)CCNC(C)=O` (stereo not drawn), the T/C (dose: 12.5 mg/kg/injection, schedule: Q01DX009 (ip), vehicle: water) was 97 % of control; the T/C (dose: 25.0 mg/kg/injection, schedule: Q01DX009 (ip), vehicle: water) is 100 % of control; the T/C (dose: 50.0 mg/kg/injection, schedule: Q01DX009 (ip), vehicle: water) is 97 % of control; the T/C (dose: 100.0 mg/kg/injection, schedule: Q01DX009 (ip), vehicle: water) was 104 % of control; the T/C (dose: 200.0 mg/kg/injection, schedule: Q01DX009 (ip), vehicle: water) was 100 % of control.

For `CCOC(=O)/C=C1\NC(=O)N(CCCN2C(=O)N/C(=C\C(=O)OCC)C2=O)C1=O`, the T/C is, setting by setting: (dose: 3.13 mg/kg/injection, schedule: Q01DX009 (ip), vehicle: saline with Tween-80) 95 % of control; under setting [9], 98 % of control; under setting [10], 95 % of control; under setting [1], 92 % of control.

For `CC(=O)NC1(C(=O)O)SCCCS1`, the T/C under setting [12] was 92 % of control, the T/C under setting [4] was 100 % of control and the T/C under setting [5] was 89 % of control.

Regarding `CNC(=S)Nc1ccc(C(=O)NC(C)C)cc1`, the T/C runs as follows: (dose: 50.0 mg/kg/injection, schedule: Q01DX009 (ip), vehicle: other) 100 % of control; (dose: 100.0 mg/kg/injection, schedule: Q01DX009 (ip), vehicle: other) 95 % of control; (dose: 200.0 mg/kg/injection, schedule: Q01DX009 (ip), vehicle: other) 97 % of control.

Consider `NC(N)=N/N=C/c1ccc(Cl)c(Cl)c1`, for which the T/C by setting is: (dose: 12.5 mg/kg/injection, schedule: Q04DX003 (ip), vehicle: saline with Tween-80) 105 % of control; (dose: 25.0 mg/kg/injection, schedule: Q04DX003 (ip), vehicle: saline with Tween-80) 97 % of control; (dose: 50.0 mg/kg/injection, schedule: Q04DX003 (ip), vehicle: saline with Tween-80) 94 % of control.

`COc1cc(C)ccc1C1=CCCCCC1`: the T/C (dose: 100.0 mg/kg/injection, schedule: Q04DX003 (ip), vehicle: saline) was 93 % of control; the T/C (dose: 200.0 mg/kg/injection, schedule: Q04DX003 (ip), vehicle: saline) was 93 % of control; the T/C (dose: 400.0 mg/kg/injection, schedule: Q04DX003 (ip), vehicle: saline) was 103 % of control.

For `OCCN=c1c2ccccc2n(O)c2c1ccc1ccccc12`, the T/C under setting [1] is 104 % of control, the T/C under setting [2] was 112 % of control and the T/C under setting [3] was 108 % of control.

Take `O=C(NC1CCCCC1)NC1CCCCC1`: the T/C runs as follows: under setting [6], 100 % of control; under setting [7], 98 % of control; under setting [8], 93 % of control.

For the compound `CS/C([S-])=N/[NH-].CS/C([S-])=N/[NH-].[Pd]`, the T/C was 107 % of control under setting [13] and 103 % of control under setting [14].

On to `CC(=O)NCC1(c2ccccc2)CCN(CCCC(=O)c2ccc(F)cc2)CC1`, for which the T/C by setting is: (dose: 25.0 mg/kg/injection, schedule: Q04DX003 (ip), vehicle: Klucel (hydroxypropylcellulose) (HPC)) 95 % of control; (dose: 50.0 mg/kg/injection, schedule: Q04DX003 (ip), vehicle: Klucel (hydroxypropylcellulose) (HPC)) 100 % of control; under setting [15], 95 % of control.

In the case of `CCOC(=O)C1CC(C(=O)OCC)C(=O)C1=O` (stereo not drawn), the T/C is, setting by setting: under setting [2], 105 % of control; under setting [3], 103 % of control; under setting [16], 97 % of control.

Turning to `Cc1[nH]c2ccccc2c1C(c1cc(Cl)cc(Cl)c1O)c1c(C)[nH]c2ccccc12`, the T/C is, setting by setting: under setting [11], 88 % of control; under setting [1], 86 % of control; under setting [2], 86 % of control; under setting [3], 86 % of control.

Turning to `CC(=O)N(C)c1ccc(C)cc1C`, the T/C runs as follows: under setting [2], 93 % of control; under setting [3], 96 % of control; under setting [16], 98 % of control.

For the compound `COc1cc(NS(C)(=O)=O)ccc1Nc1c2ccc(Cl)cc2nc2c(OC)cccc12`, the T/C is 106 % of control under setting [10]; 238 % of control (dose: 66.0 mg/kg/injection, schedule: Q04DX003 (ip), vehicle: saline with Tween-80); 168 % of control (dose: 100.0 mg/kg/injection, schedule: Q04DX003 (ip), vehicle: saline sonified); 273 % of control under setting [6]; 88 % of control (dose: 150.0 mg/kg/injection, schedule: Q04DX003 (ip), vehicle: saline with Tween-80); 154 % of control (dose: 200.0 mg/kg/injection, schedule: Q04DX003 (ip), vehicle: saline sonified).

Take `CC(=O)C1=CCC2[C@H]3CC=C4C[C@H](O)CC[C@@]4(C)C3CC[C@@]12C` (stereo partly drawn): the T/C was 103 % of control under setting [15]; 103 % of control (dose: 200.0 mg/kg/injection, schedule: Q04DX003 (ip), vehicle: Klucel (hydroxypropylcellulose) (HPC)); 103 % of control (dose: 400.0 mg/kg/injection, schedule: Q04DX003 (ip), vehicle: Klucel (hydroxypropylcellulose) (HPC)).

Regarding `O=C1C2=Cc3ccccc3CN2Cc2ccccc21`, the T/C is, setting by setting: (dose: 75.0 mg/kg/injection, schedule: Q01DX001 (ip), vehicle: other) 98 % of control; (dose: 150.0 mg/kg/injection, schedule: Q01DX001 (ip), vehicle: other) 101 % of control.

For the compound `CC1=C(Br)C(=O)C(C(O)(C(F)(F)F)C(F)(F)F)C(C)(C)C1` (stereo not drawn), the T/C was 96 % of control under setting [6] and 96 % of control under setting [7].

Turning to `CC(C)(CCCO)c1cccc(Cl)c1`, the T/C reads like this: under setting [1], 104 % of control; under setting [2], 101 % of control; under setting [3], 104 % of control.

For the compound `CCCC(=O)c1ccc(C)cc1`, the T/C reads like this: under setting [6], 97 % of control; under setting [8], 88 % of control.

These data come from PubChem BioAssay AID256 (DTP/NCI, 2004).
